From PubChem BioAssay (NCI)
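Cells were grown in 96-well plates and exposed to each compound for 48 hours at five concentrations; endpoints were interpolated linearly between bracketing concentrations, or set to the highest concentration if not reached. GI50: concentration for 50% inhibition of growth. Definition used: TGI = concentration required for complete inhibition of growth.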

Columns and labels:
Assay in all cases: inhibition of tumour cell growth, NCI panel, 48 h
HL-60(TB) leukemia = test system: HL-60(TB) leukemia
MALME-3M melanoma = test system: MALME-3M melanoma
MDA-MB-231 breast = test system: MDA-MB-231 breast
MOLT-4 leukemia = test system: MOLT-4 leukemia
OVCAR-8 ovarian = test system: OVCAR-8 ovarian
SK-MEL-5 melanoma = test system: SK-MEL-5 melanoma
SN12C renal = test system: SN12C renal
SR leukemia = test system: SR leukemia
SW-620 colon = test system: SW-620 colon
UO-31 renal = test system: UO-31 renal

SMILES	GI50 (HL-60(TB) leukemia) [µM]	TGI (HL-60(TB) leukemia) [µM]	GI50 (MALME-3M melanoma) [µM]	TGI (MALME-3M melanoma) [µM]	GI50 (MDA-MB-231 breast) [µM]	TGI (MDA-MB-231 breast) [µM]	GI50 (MOLT-4 leukemia) [µM]	GI50 (OVCAR-8 ovarian) [µM]	TGI (OVCAR-8 ovarian) [µM]	GI50 (SK-MEL-5 melanoma) [µM]	TGI (SK-MEL-5 melanoma) [µM]	GI50 (SN12C renal) [µM]	TGI (SN12C renal) [µM]	GI50 (SR leukemia) [µM]	TGI (SR leukemia) [µM]	GI50 (SW-620 colon) [µM]	TGI (SW-620 colon) [µM]	GI50 (UO-31 renal) [µM]	TGI (UO-31 renal) [µM]	TGI (MOLT-4 leukemia) [µM]
CCC[CH2][Sn]([CH2]CCC)([O]C(=O)c1cc(F)ccc1F)[O][Sn]([CH2]CCC)([CH2]CCC)[O]C(=O)c1cc(F)ccc1F	0.139	2.6	0.125	0.339	0.436	1.63	0.111	0.374	1.57	0.626	1.83	0.314	1.27	0.14	> 22.3	0.116	0.274	0.54	1.78	–
N/C(=C\C(=O)n1nc(-c2ccccc2)cc1N)c1ccccc1	1.88	5.99	7.51	25.2	11.3	65.2	3.72	13.8	> 100	3.01	12.1	7.96	24.3	1.59	7.38	3.59	17.2	3.71	65.3	17.8
Cc1nc(-c2ccccc2)c(Cc2ccccc2O)c(=O)[nH]1	–	> 100	–	> 100	–	> 100	–	–	> 100	–	> 100	–	> 100	–	> 100	–	> 100	–	> 100	> 100
Cc1cc(NCCCNc2ccnc3cc(Cl)ccc23)nc(N2CCN(C)CC2)n1	2.99	9.06	2.12	4.47	2.07	15.8	2.46	7.76	44	1.67	3.24	4.76	33.9	1.81	6.41	2.62	17.5	4.05	24	15.8
COc1cc2c(cc1OCCCCCOc1cc3c(cc1OC)C(=O)N1CC(F)C[C@H]1C=N3)N=C[C@@H]1CC(F)CN1C2=O (some centres not stated)	< 0.01	2.39	0.124	0.733	0.245	0.55	< 0.01	0.138	2.06	0.0511	0.127	< 0.0427	0.952	< 0.01	–	0.0701	0.452	0.315	4.64	0.0663
Oc1ccc(CN2CCC(N3CCOCC3)CC2)c2cccnc12	22.7	51	29.1	> 100	47.9	> 100	30.9	34.3	> 100	23.2	57	47.5	> 100	34	> 100	60	> 100	14.7	63.8	> 100
Nc1ccccc1-c1ccc([N+](=O)[O-])cc1	2.93	26.1	16.5	> 100	36.3	> 100	4.28	63.4	> 100	2.58	> 100	11.2	> 100	29	> 100	19.3	> 100	5.07	> 100	> 100
COc1cc(-n2cc(-c3ccc(F)cc3)nc2SCc2ccccc2)cc(OC)c1OC	> 100	> 100	> 100	> 100	> 100	> 100	89.2	> 100	> 100	54.8	> 100	> 100	> 100	> 100	> 100	> 100	> 100	9.66	> 100	> 100
CC(C)c1c(C(=O)Nc2ccccc2)c(-c2ccccc2)c(-c2ccc(F)cc2)n1CC[C@@H]1CC=CC(=O)O1	1.24	6.42	1.76	3.41	2.08	4.51	2.62	2.23	5.23	1.58	2.94	1.01	3.82	2.66	9.49	1.71	3.52	1.28	2.57	6.98
Cn1ccnc1C(=O)/C=C/c1ccc(C(=O)Nc2ccc(S(F)(F)(F)(F)F)cc2)cc1	0.945	5.49	5.76	> 14.3	2.33	> 14.3	1.72	2.03	> 14.3	0.603	5.99	2.77	> 14.3	0.391	10.3	0.54	5.58	2.22	> 14.3	10.1
O=c1ccc(N=Nc2ccc([N+](=O)[O-])cc2)ccc1O	3.47	38.8	14.8	> 100	9.64	71.2	4.08	3.97	> 100	6.55	> 100	3.61	> 100	4.13	> 100	3.45	> 100	5.35	> 100	> 100
COc1ccc2c(c1)=C(C=C1C=CN(O)C=C1)C(=O)N=2	22.4	49.9	24.3	55.9	23.6	> 100	31.2	29.9	99.7	22.8	63.9	22.1	59.2	18.2	> 100	25.5	> 67.8	19.8	> 92.6	> 100
N=C(N)c1ccc(OCCOCCOc2ccc(C(=N)N)cc2)cc1	> 100	> 100	39.5	> 100	> 100	> 100	> 100	31.4	> 100	33.1	> 100	58.8	> 100	31.7	> 100	> 100	> 100	71.5	> 100	> 100
Clc1ccc(/C=C/c2cc(N3CCOCC3)c3cc(Cl)c(Cl)cc3n2)cc1	0.339	> 100	> 100	> 100	11.1	> 100	0.428	> 100	> 100	> 100	> 100	1.54	> 100	14.9	> 61.8	> 100	> 100	0.71	> 45.7	–
CCN1/C(=C/C=C/c2n(-c3ccccc3)c3ccc(-c4nc5ccccc5s4)cc3[n+]2CC)N(c2ccccc2)c2ccc(-c3nc4ccccc4s3)cc21	0.464	> 50	0.161	0.838	0.19	1.68	1.8	0.304	5.82	0.184	1.27	0.175	2.44	1.4	> 50	0.445	> 50	0.622	3.57	> 50
C/C=C/C/C=C/CCC(=O)[C@H]1O[C@H]1C(N)=O	5.19	25.2	13.7	32.9	13.1	26.8	8.56	17.7	> 74.3	12.5	25.2	11.5	25.3	12.6	> 100	11.9	27.9	9.21	22.9	52
